# Experiments:
# Type in all cases: functional
# [1] = tested on: Mycobacterium tuberculosis; assay: Antimycobacterial activity against STM/INH/EMB/RIF/OFX/CLO resistant Mycobacterium tuberculosis clinical isolate Praha 4 assessed as bacterial growth inhibition incubated for 14 days by two-fold serial dilution method; conditions: Praha 4, 336 h, time 14 day
# [2] = tested on: Mycobacterium tuberculosis; assay: Antimycobacterial activity against STM/INH/EMB/RIF/OFX/CLO resistant Mycobacterium tuberculosis clinical isolate 8666/2010 strain assessed as bacterial growth inhibition incubated for 21 days by two-fold serial dilution method; conditions: 8666/2010, 504 h, time 21 day
# [3] = tested on: Mycobacterium tuberculosis; assay: Antimycobacterial activity against STM/INH/EMB/RIF/OFX/CLO-resistant Mycobacterium tuberculosis clinical isolate Praha 4 assessed as bacterial growth inhibition incubated for 21 days by two-fold serial dilution method; conditions: Praha 4, 504 h, time 21 day
# [4] = tested on: Mycobacterium tuberculosis; assay: Antimycobacterial activity against STM/INH/RIF resistant Mycobacterium tuberculosis clinical isolate 9449/2007 strain assessed as bacterial growth inhibition incubated for 21 days by two-fold serial dilution method; conditions: 9449/2007, 504 h, time 21 day
# [5] = tested on: Mycobacterium tuberculosis; assay: Antimycobacterial activity against STM/INH/EMB/RIF/CLO-resistant Mycobacterium tuberculosis clinical isolate Praha 1 assessed as bacterial growth inhibition incubated for 14 days by two-fold serial dilution method; conditions: Praha 1, 336 h, time 14 day
# [6] = tested on: Mycobacterium tuberculosis; assay: Antimycobacterial activity against TM/INH/EMB/RIF/OFX/GEN/AMK-resistant Mycobacterium tuberculosis clinical isolate Praha 131 assessed as bacterial growth inhibition incubated for 21 days by two-fold serial dilution method; conditions: Praha 131, 504 h, time 21 day
# [7] = tested on: Mycobacterium tuberculosis; assay: Antimycobacterial activity against STM/INH/EMB/RIF/CLO-resistant Mycobacterium tuberculosis clinical isolate Praha 1 assessed as bacterial growth inhibition incubated for 21 days by two-fold serial dilution method; conditions: Praha 1, 504 h, time 21 day
# [8] = tested on: Mycobacterium tuberculosis; assay: Antimycobacterial activity against STM/INH/EMB/RIF/OFX/GEN/AMK-resistant Mycobacterium tuberculosis clinical isolate Praha 131 assessed as bacterial growth inhibition incubated for 14 days by two-fold serial dilution method; conditions: Praha 131, 336 h, time 14 day
# [9] = tested on: Mycobacterium tuberculosis; assay: Antimycobacterial activity against STM/INH/EMB/RIF/OFX/CLO resistant Mycobacterium tuberculosis clinical isolate 8666/2010 strain assessed as bacterial growth inhibition incubated for 14 days by two-fold serial dilution method; conditions: 8666/2010, 336 h, time 14 day
# [10] = tested on: Mycobacterium tuberculosis; assay: Antimycobacterial activity against STM/INH/RIF resistant Mycobacterium tuberculosis clinical isolate 9449/2007 strain assessed as bacterial growth inhibition incubated for 14 days by two-fold serial dilution method; conditions: 9449/2007, 336 h, time 14 day
# [11] = tested on: Mycobacterium tuberculosis; assay: Antimycobacterial activity against STM/INH/EMB/RIF resistant Mycobacterium tuberculosis clinical isolate 234/2005 assessed as bacterial growth inhibition incubated for 14 days by two-fold serial dilution method; conditions: 234/2005, 336 h, time 14 day
# [12] = tested on: Mycobacterium tuberculosis; assay: Antimycobacterial activity against STM/INH/EMB/RIF/OFX resistant Mycobacterium tuberculosis clinical isolate 7357/1998 strain assessed as bacterial growth inhibition incubated for 14 days by two-fold serial dilution method; conditions: 7357/1998, 336 h, time 14 day
# [13] = tested on: Mycobacterium tuberculosis; assay: Antimycobacterial activity against STM/INH/EMB/RIF resistant Mycobacterium tuberculosis clinical isolate 234/2005 strain assessed as bacterial growth inhibition incubated for 21 days by two-fold serial dilution method; conditions: 234/2005, 504 h, time 21 day
# [14] = tested on: Mycobacterium tuberculosis; assay: Antimycobacterial activity against STM/INH/EMB/RIF/OFX resistant Mycobacterium tuberculosis clinical isolate 7357/1998 strain assessed as bacterial growth inhibition incubated for 21 days by two-fold serial dilution method; conditions: 7357/1998, 504 h, time 21 day
SMILES,MIC [1] [µM],MIC [2] [µM],MIC [3] [µM],MIC [4] [µM],MIC [5] [µM],MIC [6] [µM],MIC [7] [µM],MIC [8] [µM],MIC [9] [µM],MIC [10] [µM],MIC [11] [µM],MIC [12] [µM],MIC [13] [µM],MIC [14] [µM]
CNC(C)[C@@H]1CC[C@@H](N)[C@@H](O[C@H]2[C@H](O)[C@@H](O[C@H]3OC[C@](C)(O)[C@H](NC)[C@H]3O)[C@H](N)C[C@@H]2N)O1.CN[C@@H]1[C@@H](O)[C@@H](O[C@@H]2[C@@H](O)[C@H](O[C@H]3O[C@H](C(C)N)CC[C@H]3N)[C@@H](N)C[C@H]2N)OC[C@]1(C)O.CN[C@@H]1[C@@H](O)[C@@H](O[C@@H]2[C@@H](O)[C@H](O[C@H]3O[C@H](CN)CC[C@H]3N)[C@@H](N)C[C@H]2N)OC[C@]1(C)O (stereo partly drawn),0.5,4,0.5,1,1,> 17,1,> 17,4,1,0.26,1,0.26,1
C/C(=N\NC(=O)c1ccncc1)C(=O)Nc1ccc(Oc2ccccc2)cc1,16,16,16,16,16,16,16,16,16,16,8,16,16,16
C/C(=N\NC(=O)c1ccncc1)C(=O)Nc1ccc(S(=O)(=O)Nc2cc(C)on2)cc1,,≥ 250,,≥ 250,,≥ 250,,≥ 250,≥ 250,≥ 250,,,,
C/C(=N\NC(=O)c1ccncc1)C(=O)Nc1ccc(-c2ccccc2)cc1,64,64,64,64,32,64,64,32,64,64,64,64,125,125
C/C(=N\NC(=O)c1ccncc1)C(=O)Nc1ccc(Sc2ccc([N+](=O)[O-])cc2)cc1,,≥ 250,,≥ 250,,≥ 250,,≥ 250,≥ 250,≥ 250,,,,
CC1COc2c(N3CCN(C)CC3)c(F)cc3c(=O)c(C(=O)O)cn1c23 (stereo not drawn) [OFLOXACIN],> 22,11,> 22,2.8,1.4,> 17,1.4,22,11,2.8,0.7,11,0.7,11

# From ChEMBL document CHEMBL6177921, “Enhancing the antimycobacterial efficacy of pyridine-4-carbohydrazide: linkage to additional antimicrobial agents via oxocarboxylic acids” (RSC Med Chem, 2025)
